According to patent US20230295259A1 (Protagonist Therapeutics, Inc., priority 2020, published 2023):
Like-named read-outs stand apart in the source and are kept apart here. Starred links: 1 amine or outer side, 2 acyl side, 3 side chain; linkers in the order of their positions; H or OH if unused. Positions of bridges follow the written chain, without caps; N, C: chain ends. Non-standard residues stand in square brackets, D forms with d. Residues, ends and D or L forms follow the SMILES beside them. Groups on a side chain read outwards from the residue. *: point of attachment. X11 = NCCCC[C@@H](N[*:2])C(=O)C[C@@H](CS[*:1])C(N)=O; C18 diacid = O=C(O)CCCCCCCCCCCCCCCCC(=O)*; Dip = N[C@H](C(=O)O)C(c1ccccc1)c1ccccc1; X10 = CCC(=O)CC[C@H](N[*:1])C(=O)[*:2]; hLeu = CC(C)CC[C@H](N)C(=O)O; Isovaleryl = CC(C)CC(=O)*; Dap = NC[C@H](N)C(=O)O; AEEA = NCCOCCOCC(=O)O

Assays:
[1] = target: T1, human ferroportin (Homo sapiens, UniProt Q9NP59); experiment: FPN activity assay: internalization/degradation of ferroportin-GFP in stably transfected HEK293 cells (decrease in GFP fluorescence); assay type: cell-based; conditions: for DC50: Table 2D (Illustrative Monomer Hepcidin Analogues), ferroportin-GFP HEK293 cells, read-out: IC50: FPN internalisation; for EC50: HEK293 cells expressing human ferroportin-GFP, at least 18 hours incubation
T1 construct: expressed in transfected cells
T1 sequence (Q9NP59 1-571): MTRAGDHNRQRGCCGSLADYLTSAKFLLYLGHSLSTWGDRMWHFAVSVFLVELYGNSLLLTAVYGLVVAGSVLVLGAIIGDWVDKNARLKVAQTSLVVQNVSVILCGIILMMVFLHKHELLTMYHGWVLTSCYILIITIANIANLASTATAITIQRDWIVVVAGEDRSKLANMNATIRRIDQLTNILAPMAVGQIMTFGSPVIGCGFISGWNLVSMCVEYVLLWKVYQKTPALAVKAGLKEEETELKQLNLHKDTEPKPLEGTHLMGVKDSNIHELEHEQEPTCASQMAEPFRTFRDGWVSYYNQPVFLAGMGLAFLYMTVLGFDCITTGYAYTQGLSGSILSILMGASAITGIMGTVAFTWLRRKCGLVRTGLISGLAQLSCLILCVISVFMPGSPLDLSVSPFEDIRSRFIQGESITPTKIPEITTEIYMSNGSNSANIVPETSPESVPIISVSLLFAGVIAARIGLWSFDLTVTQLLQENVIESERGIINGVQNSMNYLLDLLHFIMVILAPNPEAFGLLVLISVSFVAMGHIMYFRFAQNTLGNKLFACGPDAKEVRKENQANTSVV
Protocol: Following internalization, the ferroportin protein is degraded.
A retro inverse peptide is a peptide with a reversed sequence in all D amino acids. An example is that Hy-Glu-Thr-His-NH2 becomes Hy-DHis-DThr-DGlu-NH2. The EC50 of these reference compounds for ferroportin internalization/degradation was determined according to the FPN activity assay described above. These peptides served as control standards.
These values were determined as described herein.

[2] = tested on: LAD2 cells; assay type: cell-based, human
Description: In anaphylactoid reactions, the main mechanism involves the direct stimulation of mast cells or basophils, leading to the release of anaphylactic mediators such as histamine and β-hexosaminidase. A recent study by McNeil et al. (McNeil B D et al., 2015) reported that MrgprX2, a specific membrane receptor on human mast cells, induces anaphylactoid reactions. The LAD2 (Laboratory of Allergic Diseases 2) human mast cell line, derived from human mast cell sarcoma/leukemia (Kirshenbaum et al., 2003), is commonly employed to study anaphylactoid reactions, because its biological properties are identical to those of primary human mast cells, including the overexpression of the MrgprX2 receptor and sensitivity towards degranulating peptides (Kulka et al., 2008). The release of anaphylactic mediators such as f-hexosaminidase, is assessed by fluorometric quantification.
On the day of the assay, serial dilutions of compounds were added to LAD2 cells plated at 20000 cells/well in a 96-well plate. After incubation for 30 minutes, the amount of β-hexosaminidase released into the supernatants and in cell lysates was quantified using the fluorogenic substrate 4-methylumbelliferyl-N-acetyl-b-D-glucosaminide. Dose-response curves were generated by plotting the % of β-hexosaminidase release (y-axis) against the concentrations of peptides tested (x-axis). […]. (Table 2D).

[3] = LAD2 mast cells, β-hexosaminidase release, 30 minutes incubation, read-out: EC50: LAD2

Compound | EC50 [2, 3] [µM] | also measured
CC[C@H](C)[C@@H]1NC(=O)[C@@H](NC(=O)[C@@H]2CCCN2C(=O)[C@@H](NC(=O)[C@H](Cc2ccncc2)NC(=O)[C@@H](NC(=O)[C@H](CCC(=O)OC)NC(=O)CC(C)C)[C@@H](C)O)C(c2ccccc2)c2ccccc2)CSSC[C@@H](C(N)=O)NC(=O)[C@@H](CCCCN)NC(=O)C[C@H](Cc2ccccc2)NC(=O)[C@H](CCCCNC(=O)COCCOCCNC(=O)COCCOCCNC(=O)[C@H](CN)NC(=O)CCCCCCCCCCCCCCCCC(=O)O)NC1=O [Compound 499] |  | DC50 [1]: 0.0143 µM
Isovaleric Acid-E-T-H-[Dpa]-P-[Cys]-I-[Lys(Ahx_PEG20K)]-[bhPhe]-R-[Cys]-NH2 [Compound 51] |  | EC50 ([1]; Table 2A): 0.103 µM
COC(=O)CC[C@H](NC(=O)CC(C)C)C(=O)N[C@H](C(=O)N[C@@H](Cc1cnc[nH]1)C(=O)N[C@H](C(=O)N1CCC[C@H]1C1CSSC[C@@H](C(N)=O)NC(=O)[C@@H](CCCCN)NC(=O)C[C@H](Cc2ccccc2)NC(=O)[C@H](CCCCNC(=O)COCCOCCNC(=O)COCCOCCNC(=O)[C@H](CN)NC(=O)CCCCCCCCCCCCCCCCC(=O)O)NC(=O)C2(CCCCC2)NC1=O)C(c1ccccc1)c1ccccc1)[C@@H](C)O (some centres unmarked) [Compound 512] |  | DC50 [1]: 0.0374 µM
CCC(=O)CC[C@H](NC(=O)CC(C)C)C(=O)N[C@H](C(=O)N[C@@H](Cc1cnc[nH]1)C(=O)N[C@H](C(=O)N1CCC[C@H]1C(=O)N[C@H]1CSSC[C@@H](C(N)=O)CC(=O)[C@@H](CCCCN)NC(=O)[C@H](CCC(C)C)NC(=O)[C@H](CCCCNC(=O)COCCOCCNC(=O)COCCOCCNC(=O)[C@H](CN)NC(=O)CCCCCCCCCCCCCCCCC(=O)O)NC(=O)[C@H]([C@@H](C)CC)NC1=O)C(c1ccccc1)c1ccccc1)[C@@H](C)O [Compound 509] (Isovaleryl-[X10]TH[Dip]PCIK([AEEA-AEEA-Dap-C18 diacid])[hLeu]; linker 6-C via X11) |  | DC50 [1]: 0.0206 µM
Isovaleric Acid-E-T-H-[Dpa]-P—C—I-[Lys(PEG4_PEG4_IsoGlu_C18_Diacid)]-[bhF]-[(D)Lys]-C—NH2 [Compound 237] | > 100 | 
Isovaleric Acid-E-T-H-[Dpa]-P—C—I-[Lys(1PEG2_1PEG2_Ahx_C18_Diacid)]-[bhPhe]-[(D)Lys(PEG40KB-C—NH2 [Compound 297] |  | EC50 ([1]; Table 2B): 1.36 µM
Isovaleric Acid-E-T-H-[Dpa]-P—C—I-[Lys(PEG12_C18_Diacid)]-[bhPhe]-[(D)Lys(PEG11_OMe)]—C—NH2 [Compound 293] | > 100 | 
Isovaleric Acid-E-T-H-[Dpa]-P—C—I-[Lys(Ahx_Palm)]-[bhPhe]-[(D)Lys(PEG20K)]-C—NH2 [Compound 312] |  | EC50 ([1]; Table 2B): 0.0326 µM
Isovaleric Acid-E-T-H-[Dpa]-P—C—I-[Lys(1PEG8_IsoGlu_C18_Diacid)]-[bhPhe]-[(D)Lys]-C—NH2 [Compound 238] | > 100 | 
CC[C@H](C)[C@@H]1NC(=O)[C@@H](NC(=O)[C@@H]2CCCN2C(=O)[C@@H](NC(=O)[C@H](Cc2cnc[nH]2)NC(=O)[C@@H](NC(=O)[C@H](CCC(=O)O)NC(=O)CC(C)C)[C@@H](C)O)C(c2ccccc2)c2ccccc2)CSSC[C@@H](C(N)=O)NC(=O)[C@@H](CCCCNC(=O)CCOCCOCCOCCOCCOCCOCCOCCOC)NC(=O)C[C@H](Cc2ccccc2)NC(=O)[C@H](CCCCNC(=O)COCCOCCNC(=O)COCCOCCNC(=O)CCCCCNC(=O)CCCCCCCCCCCCCCCCC(=O)O)NC1=O [Compound 256, Isovaleric Acid-E-T-H-[Dpa]-P—C—I-[Lys(1PEG2_1PEG2_Ahx_C18_Diacid)]-[bhPhe]-[(D)Lys(PEG7_OMe)]—C—NH2] |  | EC50 [2]: > 100 µM
Isovaleric Acid-E-T-H-[Dpa]-P—C—I-[Lys(1PEG2_1PEG2_1PEG2_C18_Diacid)]-[bhPhe]-[(D)Lys]-C—NH2 [Compound 254] | > 33 | 
Isovaleric Acid-E-T-H-[Dpa]-P—C—I-[Lys(1PEG2_1PEG2_IsoGlu_C14_Diacid)]-[bhPhe]-[(D)Lys]-C—NH2 [Compound 233] | > 100 | 
Isovaleric Acid-E-T-H—F—P—C—I-[Lys(Ahx_Palm)]-F-E-P—R—S—K-G-C—K—NH2 [Compound 223] | 0.7 | 
Isovaleric Acid-E-T-H—F—P—C—I-[Lys(1PEG2_1PEG2_Ahx_C18_Diacid)]-F-E-P—R—S—K-G-C—K—NH2 [Compound 221] | > 100 | 
Isovaleric Acid-[Glu_OMe]-T-H-[Dpa]-P—C—I-[Lys(1PEG2_1PEG2_Ahx_C18_Diacid)]-[bhPhe]-[(D)Lys]-C—NH2 [Compound 277] | 11.7 | 
Isovaleric Acid-E-T-H—F—P—C—I-[Lys(IsoGlu_C18_Diacid)]-F-E-P—R—S—K-G-C—K—NH2 [Compound 222] | > 100 | 
Isovaleric Acid-E-T-H-[Dpa]-P—C—I-[Lys(1PEG2_1PEG2_IsoGlu_C12_Diacid)]-[bhPhe]-[(D)Lys]-C—NH2 [Compound 234] | > 100 | 
CC[C@H](C)[C@@H]1NC(=O)[C@@H](NC(=O)[C@@H]2CCCN2C(=O)[C@@H](NC(=O)[C@H](Cc2cnc[nH]2)NC(=O)[C@@H](NC(=O)[C@H](CCC(=O)O)NC(=O)CC(C)C)[C@@H](C)O)C(c2ccccc2)c2ccccc2)CSSC[C@@H](C(N)=O)NC(=O)[C@@H](CCCCN)NC(=O)C[C@H](Cc2ccccc2)NC(=O)[C@H](CCCCNC(=O)COCCOCCNC(=O)COCCOCCNC(=O)CC[C@H](NC(=O)CCCCCCCCCCCCCCCCC(=O)O)C(=O)O)NC1=O [Compound 107, Isovaleric Acid-E-T-H-[Dpa]-P-[Cys]-I-[Lys(1Peg2_1Peg2_IsoGlu_C18_Diacid)]-[bhPhe]-[(D)Lys]-[Cys]-NH2] |  | EC50 [2]: > 33 µM
CCCCCCCCCCCCCCCC(=O)NCCCCCC(=O)NCCCC[C@@H]1NC(=O)C[C@H](Cc2ccccc2)NC(=O)[C@@H](CCCCNC(=O)CCOCCOCCOCCOCCOCCOCCOCCOCCOCCOCCOCCOC)NC(=O)[C@H](C(C)CC)NC(=O)C(NC(=O)[C@@H]2CCCN2C(=O)[C@@H](NC(=O)[C@H](Cc2cnc[nH]2)NC(=O)[C@@H](NC(=O)[C@H](CCC(=O)O)NC(=O)CC(C)C)[C@@H](C)O)C(c2ccccc2)c2ccccc2)CSSC[C@@H](C(N)=O)NC(=O)[C@@H](CCCCNC(=O)CCOCCOCCOCCOCCOCCOCCOCCOCCOCCOCCOCCOC)NC1=O (some centres unmarked) [Compound 19, Isovaleric Acid-E-T-H-[Dpa]-P-[Cys]-I-[(D)Lys(2Peg11′_OMe)]-[bhPhe]-[Lys(Ahx_Palm)]-[(D)Lys(2Peg11′_OMe)]-[Cys]-NH2] |  | EC50 [2]: > 100 µM
Isovaleric Acid-E-T-H-[Dpa]-P—C—I-[Lys(1PEG2_1PEG2_IsoGlu_C18_Diacid)]-[bhPhe]-[(D)Lys]-[Pen]-NH2 [Compound 281] | > 100 | 
Isovaleric Acid-E-T-H-[Dpa]-P—C—I-[Lys(PEG12_C16_Diacid)]-[bhPhe]-[(D)Lys]-C—NH2 [Compound 265] | 23.1 | 
Isovaleric Acid-E-T-H-[Dpa]-P—C—I-[Lys(PEG12_IsoGlu_C18_Diacid)]-[bhPhe]-[(D)Lys(PEG11_OMe)]—C—NH2 [Compound 292] | > 100 | 
Isovaleric Acid-E-T-H-[Dpa]-P-[Cys]-I-[Lys(2Peg11′_IsoGlu_C18)]-[bhPhe]-[(D)Lys]-[Cys]-NH2 [Compound 112] | 0.52 | 
Isovaleric Acid-E-T-H-[Dpa]-P—C—I-[Lys(PEG12_IsoGlu_Palm)]-[bhPhe]-[(D)Lys(PEG11_OMe)]—C—NH2 [Compound 291] | > 100 | 
Isovaleric Acid-E-T-H—F—P—C—I-[Lys(IsoGlu_Palm)]-F-E-P—R-S-G-C—NH2 [Compound 226] | 15.7 | 
CC[C@H](C)[C@@H]1NC(=O)[C@@H](NC(=O)[C@@H]2CCCN2C(=O)[C@@H](NC(=O)[C@H](Cc2cnc[nH]2)NC(=O)[C@@H](NC(=O)[C@H](CCC(=O)O)NC(=O)CC(C)C)[C@@H](C)O)C(c2ccccc2)c2ccccc2)CSSCC(C(N)=O)NC(=O)[C@@H](CCCCNC(=O)CCOCCOCCOCCOCCOCCOCCOCCOCCOCCOCCOCCOC)NC(=O)C[C@H](Cc2ccccc2)NC(=O)[C@H](CCCCNC(=O)COCCOCCNC(=O)COCCOCCNC(=O)CCCCCNC(=O)CCCCCCCCCCCCCCCCC(C)=O)NC1=O (some centres unmarked) [Compound 255, Isovaleric Acid-E-T-H-[Dpa]-P—C—I-[Lys(1PEG2_1PEG2_Ahx_C18_Diacid)]-[bhPhe]-[(D)Lys(PEG11_OMe)]—C—NH2] |  | EC50 [2]: > 100 µM
